“And” between values parts separate entries of the source, which are not always exact repeats. Identical values can stand only once. The source made the active and inactive calls. How the calls were made is not given here; tested in parental BL2 cells.
Each molecule was assayed on cytotoxicity, CellTiter-Glo ATP luminescence (assay: cell cytotoxicity, dose response, cytotoxicity control, CellTiter-Glo (AID 1259333)).

Structure (SMILES) | AC50
CCS(=O)(=O)N1[C@H](CO)[C@@H](c2ccc(C#Cc3ccccc3F)cc2)[C@@H]1C#N | > 20 µM (inactive)
N#C[C@@H]1[C@H](c2ccc(C#CC3CCCC3)cc2)[C@H](CO)N1C(=O)Cc1ccccn1 | > 20 µM (inactive)
C[C@H](CO)N1C[C@H](C)[C@@H](CN(C)Cc2cccc(C(F)(F)F)c2)OCc2ccccc2-c2c(n(C)c3ccccc23)C1=O | 6.4 µM
O=C1NC2c3c(Cl)sc(Cl)c3C(=O)C2O1 (stereo unspecified) | 3.72 µM
C[C@@H]1CCCCO[C@@H](CN(C)Cc2ccc(Cl)c(Cl)c2)[C@H](C)CN([C@H](C)CO)C(=O)c2cc(NS(=O)(=O)c3cccs3)ccc2O1 | 8.68 µM
C[C@@H]1CN([C@H](C)CO)C(=O)c2c(c3ccccc3n2C)-c2ccccc2CO[C@H]1CN(C)Cc1cccc(C(F)(F)F)c1 | > 20 µM (inactive)
Cc1noc(C)c1S(=O)(=O)N(C)C[C@H]1OCc2ccccc2-c2c(n(C)c3ccccc23)C(=O)N([C@@H](C)CO)C[C@H]1C | 10.1 µM
O=C(Nc1ccccc1F)N1CCCCN2[C@H](CO)[C@H](c3ccc(/C=C/c4ccccc4)cc3)[C@H]2C1 | > 20 µM (inactive)
C1CCC(C(CC2CCCCN2)C2CCCCC2)CC1 (stereo unspecified) | 2.37 µM
N#C[C@H]1[C@H](c2ccc(C#Cc3ccccc3F)cc2)[C@@H](CO)N1C(=O)C1CC1 | > 20 µM (inactive)
OC1CC2CCC(C1)N2CCCN1c2ccccc2Sc2ccc(Cl)cc21 (stereo unspecified) | 10.6 µM
N#C[C@@H]1[C@H](c2ccc(C#CC3CCCCC3)cc2)[C@@H](CO)N1C(=O)Nc1ccc(F)cc1 | > 20 µM (inactive)
Cc1cc(OCC(=O)OCC(=O)NCc2ccco2)ccc1Cl | 2.21 µM
O=C(c1ccc(Nc2nccc(-c3cc4ccccc4s3)n2)cc1)N1CCC(N2CCCC2)CC1 | 3.83 µM and 1.17 µM
Cc1ccsc1C(=O)OCC(=O)c1cc(C)n(CC2CCCO2)c1C (stereo unspecified) | > 20 µM (inactive)
CCc1cc2c(=O)c(-c3ccc4c(c3)OCCO4)coc2c(CN2CCCCC2C)c1O (stereo unspecified) | 8.84 µM
CCN(CC)c1ccc(C(NC(=O)C(C)C)c2ccc3cccnc3c2O)cc1 (stereo unspecified) | 9.15 µM
CCCNC(=O)N1[C@H](C#N)[C@@H](c2ccc(-c3cccc(OC)c3)cc2)[C@H]1CO | > 20 µM (inactive)
COc1ccc(S(=O)(=O)Nc2ccc3c(c2)C(=O)N([C@@H](C)CO)C[C@H](C)[C@H](CN(C)Cc2ccc(C(F)(F)F)cc2)OCCCC[C@H](C)O3)cc1 | > 20 µM (inactive)
C[C@@H]1CN([C@H](C)CO)C(=O)c2c(c3ccccc3n2C)-c2ccccc2CO[C@@H]1CN(C)C(=O)c1cc(Cl)cc(Cl)c1 | 9.93 µM
O=C(C1CCC1)N1CCc2cc(S(=O)(=O)N3CCCCC3)ccc21 | 2.65 µM
CC1=CC(C)(C)N=C(Nc2nc(C)c3cc(C)cc(C)c3n2)N1 | 1.46 µM

Structure (SMILES) | AC50
COC(=O)c1nn(-c2ccc(-c3ccccc3)cc2)cc1O | > 20 µM (inactive)
C[C@@H]1CN([C@@H](C)CO)C(=O)c2c(c3ccccc3n2C)-c2ccccc2CO[C@H]1CN(C)S(=O)(=O)c1ccc([N+](=O)[O-])cc1 | > 20 µM (inactive)
CCCC(=O)NC1=C(Cl)C(=O)c2ccccc2C1=O | 1.12 µM
CC(C)CCCCCCCCCCCCC(=O)NCC(=O)NC1C(O)C(O)C(Nc2ncnc3nc[nH]c23)OC1C(O)CO (stereo unspecified) | 9.02 µM
N#C[C@@H]1[C@H](c2ccc(C#CC3CCCCC3)cc2)[C@@H](CO)N1S(=O)(=O)c1ccccc1 | 7.22 µM
COC(=O)c1ccccc1-c1c2ccc(=N)cc-2oc2cc(N)ccc12 | > 20 µM (inactive)
C[n+]1c2n(c3ccccc31)N=C(c1ccc(-c3ccccc3)cc1)CS2 | 6.3 µM
CC(C)c1ccc(NC(=O)Nc2nc(C(N)COCc3ccccc3)cs2)cc1 (stereo unspecified) | 4.21 µM
CN(C)c1ccc(C(=C2C=CC(=[N+](C)C)C=C2)c2ccc(N(C)C)cc2)cc1 | 0.492 µM
CC(C)Cc1ccc(C(C)CC2=CCC(CN(C)C)C2=O)cc1 (stereo unspecified) | 3.42 µM
COc1cc(C(=O)CCN2CCC(c3ccccc3)C2)cc(OC)c1OC (stereo unspecified) | 7.27 µM
COc1ccc2c3c([nH]c2c1)[C@H](CO)N(C(=O)Nc1ccc(F)cc1)CC31CCN(C(=O)c2ccccc2F)CC1 | 8.44 µM
Cc1ccc(S(=O)(=O)C=CS(=O)(=O)c2ccc(C)cc2)cc1 | 3.97 µM
C[C@@H]1CC=CC[C@H](c2ccc(F)cc2)NC(=O)[C@@H](Cc2ccccc2)N(C)C(=O)c2ccccc2O1 (mixture of isomers) | > 20 µM (inactive)
C[C@H](CO)N1C[C@H](C)[C@H](CN(C)C(=O)Nc2cccc(Cl)c2Cl)OCc2ccccc2-c2c(n(C)c3ccccc23)C1=O | 2.51 µM
OC(c1cc(-c2cccc(Cl)c2)nc2ccccc12)C1CCCCN1 (stereo unspecified) | 2.86 µM
O=[N+]([O-])c1ccc(N2CCOCC2)c2c1no[n+]2[O-] | 2.85 µM
CCCNC(=O)N1[C@H](C#N)[C@H](c2ccc(C3=CCCCC3)cc2)[C@@H]1CO | > 20 µM (inactive)
C[C@H]1CN([C@@H](C)CO)C(=O)c2ccccc2-c2ccccc2CO[C@H]1CN(C)Cc1ccc(Oc2ccccc2)cc1 | > 20 µM (inactive)
COc1ccc(-c2cc(-c3ccccc3)c(C#N)c(S(C)=O)n2)cc1 (stereo unspecified) | 3 µM
COc1cc(C(C)C)c2c(c1)S(=O)(=O)N(COc1cc(=O)n3cccc(OCCN4CCCCC4)c3n1)C2=O | 10.5 µM
COc1ccc2c3c(n(C)c2c1)[C@H](CO)N(C(C)=O)CC31CN(Cc2ccc(Cl)cc2)C1 | > 20 µM (inactive)

Structure (SMILES) | AC50
c1ccc2sc(-c3ccc4c(c3)OCO4)nc2c1 | 5.19 µM
C[C@@H]1CN([C@@H](C)CO)C(=O)c2ccccc2-c2ccccc2CO[C@@H]1CN(C)Cc1ccc(Oc2ccccc2)cc1 | 8.71 µM
COC(=O)C12OCC34C(CC5C(C)=C(O)C(=O)CC5(C)C3C(O)C1O)OC(=O)C(OC(=O)C=C(C)C)C24 (stereo unspecified) | 3.11 µM
Cc1ccc(S(=O)(=O)N2CCCC2CNC(=O)c2ccc3c(c2)OCO3)cc1 (stereo unspecified) | 4.95 µM
CC(C)[C@H](N)C(=O)N[C@H]1CCC2C3CC=C4C[C@@H](O)CC[C@]4(C)C3CC[C@@]21C (stereo partly specified) | 6.89 µM
N=C(N)c1ccc(OCCCCCOc2ccc(C(=N)N)cc2)cc1 | > 20 µM (inactive)
CNc1c2cccc(C)c2nc2c(C(=O)NCCN(C)C)cccc12 | 5.98 µM
Cc1c(C(=O)c2cccc3ccccc23)c2cccc3c2n1[C@H](CN1CCOCC1)CO3 | 3.44 µM
CC(C)=CCc1c2c(c3occ(-c4ccc(O)c(O)c4)c(=O)c3c1O)C=CC(C)(C)O2 | 5.55 µM
CCSc1ccc(-c2cc(NC=O)c3ncc(-c4cccc(C(=O)N(C)C)c4)n3c2)cc1 | > 20 µM (inactive)
CC1=NNC(=O)C1Br (stereo unspecified) | 9.62 µM
Cc1noc(C)c1S(=O)(=O)Nc1ccc2c(c1)C(=O)N([C@H](C)CO)C[C@H](C)[C@@H](CN(C)C(=O)Nc1cccc3ccccc13)OCCCC[C@H](C)O2 | > 20 µM (inactive)
CC(=O)OC1C(=O)OCC23CCC4(C)OC4C2OC2CC(OC(=O)C=CC=CC(=O)OCCC1C)C3(C)C21CO1 (stereo unspecified) | > 7 µM (inactive)
CC(=O)Nc1ccc(Sc2ccc([N+](=O)[O-])o2)cc1 | 6.13 µM
CC(NCC(O)COCCC12CC3CC(CC(C3)C1)C2)c1ccccc1 (stereo unspecified) | 6.49 µM
CC12CCC3C(CCC4(O)CC(O)CCC34C=O)C1(O)CCC2C1=CC(=O)OC1 (stereo unspecified) | 3.23 µM
COC(=O)C[C@](O)(CCCC(C)(C)O)C(=O)O[C@@H]1C(OC)=C[C@]23CCCN2CCc2cc4c(cc2[C@H]13)OCO4 | > 20 µM (inactive)
OC(CCN1CCCCC1)c1ccc(-c2ccccc2)cc1 (stereo unspecified) | > 20 µM (inactive)
NC(=O)c1c(Br)n(C2OC(CO)C(O)C2O)c2ncnc(N)c12 (stereo unspecified) | 3.14 µM
COc1ccc(/C=C/C(=O)Nc2ccccc2C(=O)O)cc1OC | > 20 µM (inactive)
CCN(CC)CCCNc1nc2ccccc2c2[nH]c3ccc(OC)cc3c12 | 6.93 µM
COc1ccc2c3c(n(C)c2c1)[C@H](CO)N(C(=O)Nc1ccc(F)cc1)CC31CCN(C(=O)c2ccc3c(c2)OCO3)CC1 | > 20 µM (inactive)

Structure (SMILES) | AC50
COC(=O)c1ccc2nc(NC(=O)C(C)(C)C)sc2c1 | 7.83 µM
COC(=O)C1=C(C(=O)OC)C2OC1c1cc3ccccc3cc12 | 2.65 µM
Cn1cnc([N+](=O)[O-])c1S(=O)(=O)Oc1cccc2ccccc12 | 1.91 µM
O=C(c1ccc(-c2ccc([N+](=O)[O-])cc2)o1)N1CCCC(C(F)(F)F)C1 (stereo unspecified) | > 20 µM (inactive)
COc1ccc(S(=O)(=O)Nc2ccc3c(c2)C(=O)N([C@H](C)CO)C[C@@H](C)[C@H](CN(C)Cc2ccc(C(F)(F)F)cc2)OCCCC[C@@H](C)O3)cc1 | 8.94 µM
N#Cc1c(Br)n(C2OC(CO)C(O)C2O)c2ncnc(N)c12 (stereo unspecified) | 4.91 µM
COc1ccc2c3c(n(C)c2c1)[C@@H](CO)N(C(=O)Nc1ccc(F)cc1)CC31CN(Cc2ccccc2F)C1 | > 20 µM (inactive)
COc1ccc(NC(=O)O/N=C/c2c(C)nn(C(C)(C)C)c2C)cc1 | 7.85 µM
CCC(C)[C@H]1O[C@]2(CC[C@@H]1C)C[C@@H]1C[C@@H](C/C=C(\C)[C@@H](OC3C[C@H](OC)C(O[C@H]4C[C@H](OC)[C@@H](O)[C@H](C)O4)[C@H](C)O3)[C@@H](C)/C=C/C=C3\CO[C@@H]4[C@H](O)C(C)=C[C@@H](C(=O)O1)[C@]34O)O2 (stereo partly specified) | > 20 µM (inactive)
O=C1NC2C(O)C(O)C(O)C(O)C2c2cc3c(c(O)c21)OCO3 (stereo unspecified) | 9.05 µM
N#C[C@H]1[C@@H](c2ccc(C#CC3CCCCC3)cc2)[C@@H](CO)N1C(=O)Nc1ccc(F)cc1 | > 20 µM (inactive)
c1ccc2nc(-c3nc4ccccc4o3)ccc2c1 | > 20 µM (inactive)
C[C@@H]1CN([C@H](C)CO)C(=O)c2c(c3ccccc3n2C)-c2ccccc2CO[C@H]1CN(C)C(=O)c1cc(Cl)cc(Cl)c1 | > 20 µM (inactive)
Cc1cc(C)cc(N2C(=O)CC(Sc3nnnn3-c3ccccc3)C2=O)c1 (stereo unspecified) | 4.02 µM
C[C@H]1CN([C@@H](C)CO)C(=O)c2c(c3ccccc3n2C)-c2ccccc2CO[C@@H]1CN(C)Cc1cccc(C(F)(F)F)c1 | 4.21 µM
CC(C(=O)O)c1ccc(N2Cc3ccccc3C2=O)cc1 (stereo unspecified) | 9.56 µM
C[C@H]1O[C@@H](O[C@H]2[C@@H](O)C[C@H](O[C@H]3[C@@H](O)C[C@H](O[C@H]4CC[C@]5(C)C6C[C@@H](O)[C@]7(C)[C@@H](C8=CC(=O)OC8)CC[C@]7(O)C6CC[C@@H]5C4)O[C@@H]3C)O[C@@H]2C)C[C@H](O)[C@@H]1O (stereo partly specified) | 2.71 µM
COCC(C)n1c(C)cc(C(=O)COC(=O)c2cccn2C)c1C (stereo unspecified) | > 7 µM (inactive)
O=C(Cn1ncc(Cl)c(Cl)c1=O)NC1CCCCC1 | 9.64 µM
CC1CC(C)(O)CC(C(O)CC2CC(=O)NC(=O)C2)C1=O (stereo unspecified) | 7.54 µM
